The values below come from US20050101593A1, “Phosphoric acid salt of an integrin receptor antagonist” (priority 2000, published 2005).

The nature of data set [1]: hygroscopicity. It is filed as physicochemical. The settings on record: compared with the amorphous zwitterion of formula (IV). The source says:
(§1) The enhanced stability and non-hygroscopic nature of the crystalline salt constitute advantageous properties in the preparation of solid pharmaceutical dosage forms containing the pharmacologically active ingredient.

A short description of data set [2]: solubility in water and buffered solutions. To be noted: water and buffered solutions between pH 2 and 8. It is filed as physicochemical.
A short description of data set [3]: chemical stability to heat and light. It is filed as physicochemical. To be noted: compared with the amorphous parent zwitterionic compound of formula (IV).
Description: as §1

A word on the melting point: it is the temperature, or range, at which the solid turns liquid. As a reminder, the solubility is how much of the substance goes into solution per volume. A low value points to a poorly soluble substance.

Structures can show the parent of a compound that is named as a salt.

On to `COc1ncc(C(CC(=O)O)CC(=O)CCCCc2ccc3c(n2)NCCCC3)cn1.O=P(O)(O)O` (single isomer, unassigned) [1-17a, 3(S or R)-(2-Methoxy-pyrimidin-5-yl)-5-oxo-9-(6,7,8,9-tetrahydro-5H-pyrido[2,3-b]azepin-2-yl)-nonanoic Acid Phosphoric Acid Salt], for which the melting point came to 127 °C.
With `COc1ncc(C(CC(=O)O)CC(=O)CCCCc2ccc3c(n2)NCCCC3)cn1` (stereo not shown) [salt of formula I, phosphoric acid salt of 3-(2-methoxy-pyrimidin-5-yl)-5-oxo-9-(6,7,8,9-tetrahydro-5H-pyrido[2,3-b]azepin-2-yl)-nonanoic acid], in data set [1], the hygroscopicity result is listed as “significantly less hygroscopic”. The same compound showed a solubility in data set [2] of over 12 mg/mL. The “chemical stability to heat and light” value in data set [3] was “greater chemical stability to heat and light”.
